Experimental data from patent publication US7893279B2, “Cyclohexanecarboxylic acid compound” (Daiichi Pharmaceutical Co., Ltd., priority 2003, dated 2011).
≈ marks a conversion by molar mass, not a printed value.

Columns and labels:
[1] = Moisture adsorption/desorption (microbalance, automatic vapor adsorption apparatus); assay type: physicochemical; settings: for Moisture adsorption/desorption: change in weight / stability: crystals about 20 mg, relative humidities 10 to 90% RH
Description: Compound (1), compound (a), and salts of compound (a) prepared in Example 1, Referential Example 1, and Comparative Example 1, respectively, were evaluated in terms of moisture adsorption/desorption. Specifically, the amount of water adsorbed on or desorbed from each compound was determined through subjecting crystals (about 20 mg) of each compound to a microbalance (automatic vapor adsorption apparatus) and measuring time-elapsed change in weight at relative humidities (RH) ranging from 10 to 90%.

[2] = Solubility to water (37° C.); assay type: physicochemical; settings: for Water-solubility (in words) / solubility: 37° C., water; for solubility: Table 1
VLA-4 = VLA-4 (Homo sapiens, UniProt P05556+P13612); assay: VLA-4 inhibitory activity; assay type: binding; settings: compared with compound (a)
Chain of VLA-4 (P13612 34-1032): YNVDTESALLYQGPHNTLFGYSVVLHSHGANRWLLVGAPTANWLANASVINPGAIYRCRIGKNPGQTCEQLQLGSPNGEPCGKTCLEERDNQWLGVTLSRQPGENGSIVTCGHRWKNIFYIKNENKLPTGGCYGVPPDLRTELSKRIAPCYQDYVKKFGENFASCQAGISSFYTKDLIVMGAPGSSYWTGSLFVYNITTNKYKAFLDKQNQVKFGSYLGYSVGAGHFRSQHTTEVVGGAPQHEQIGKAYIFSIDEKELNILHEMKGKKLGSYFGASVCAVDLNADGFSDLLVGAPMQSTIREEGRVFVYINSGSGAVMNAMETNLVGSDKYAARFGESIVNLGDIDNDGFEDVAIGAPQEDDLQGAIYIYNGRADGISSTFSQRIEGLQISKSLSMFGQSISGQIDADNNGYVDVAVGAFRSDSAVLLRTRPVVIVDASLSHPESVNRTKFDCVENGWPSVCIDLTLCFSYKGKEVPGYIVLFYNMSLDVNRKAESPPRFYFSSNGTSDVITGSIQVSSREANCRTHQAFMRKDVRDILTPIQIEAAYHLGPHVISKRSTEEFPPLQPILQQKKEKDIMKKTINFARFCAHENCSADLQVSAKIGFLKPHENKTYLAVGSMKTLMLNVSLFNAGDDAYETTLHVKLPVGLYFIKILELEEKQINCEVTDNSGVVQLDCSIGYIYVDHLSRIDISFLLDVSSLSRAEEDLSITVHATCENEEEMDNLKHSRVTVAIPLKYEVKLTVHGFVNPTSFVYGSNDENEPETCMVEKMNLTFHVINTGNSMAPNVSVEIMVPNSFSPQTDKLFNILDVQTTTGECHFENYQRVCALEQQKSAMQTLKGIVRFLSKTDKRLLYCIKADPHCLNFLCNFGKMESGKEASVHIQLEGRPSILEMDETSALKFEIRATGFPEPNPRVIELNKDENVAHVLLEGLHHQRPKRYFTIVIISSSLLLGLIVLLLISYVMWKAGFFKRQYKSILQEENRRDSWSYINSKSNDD
Chain of VLA-4 (P05556 21-798): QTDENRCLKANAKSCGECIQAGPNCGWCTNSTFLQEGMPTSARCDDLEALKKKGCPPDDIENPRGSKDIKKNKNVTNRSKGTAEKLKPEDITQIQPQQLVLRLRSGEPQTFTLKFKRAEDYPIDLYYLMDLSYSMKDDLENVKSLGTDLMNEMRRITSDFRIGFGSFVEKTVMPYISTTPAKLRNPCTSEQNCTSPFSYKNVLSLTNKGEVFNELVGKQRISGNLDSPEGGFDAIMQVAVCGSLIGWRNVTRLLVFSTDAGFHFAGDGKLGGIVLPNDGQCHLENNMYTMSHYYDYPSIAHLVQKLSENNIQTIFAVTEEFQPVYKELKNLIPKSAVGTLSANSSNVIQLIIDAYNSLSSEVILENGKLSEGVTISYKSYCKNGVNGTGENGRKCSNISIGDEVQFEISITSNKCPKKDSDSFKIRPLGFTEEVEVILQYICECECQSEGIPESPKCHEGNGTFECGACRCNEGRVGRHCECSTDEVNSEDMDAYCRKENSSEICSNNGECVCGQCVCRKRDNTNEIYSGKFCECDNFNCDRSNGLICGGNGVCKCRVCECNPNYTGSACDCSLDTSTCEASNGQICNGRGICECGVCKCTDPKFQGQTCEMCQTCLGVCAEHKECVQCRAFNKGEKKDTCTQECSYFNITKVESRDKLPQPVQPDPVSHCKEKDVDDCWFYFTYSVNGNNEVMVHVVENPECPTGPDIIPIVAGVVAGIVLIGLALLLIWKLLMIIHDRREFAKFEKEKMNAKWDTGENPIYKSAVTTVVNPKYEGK

| Structure (SMILES) | Moisture adsorption/desorption: change in weight / stability [1] | Water-solubility (in words) [2] | solubility [2] [µg/mL] | VLA-4 inhibitory activity (VLA-4) | Storage stability (moisture adsorption/desorption property) of crystal forms ([1]; Type-I and Type-II crystals of compound (1), FIG. 5) | Water Solubility ([2]; crystal forms of compound (1), manner similar to Test Example 2, Table 3) [µg/mL] |
| --- | --- | --- | --- | --- | --- | --- |
| CO[C@H]1C[C@@H](CO[C@H]2CC[C@H](C(=O)[O-])CC2)N(C(=O)Cc2cc(Cl)c(NC(=O)c3cn(C)c4ccccc34)cc2Cl)C1.[Na+] [Compound (1), sodium trans-4-[1-[2,5-dichloro-4-[(1-methyl-1H-3-indolylcarbonyl)amino]phenylacetyl]-(4S)-methoxy-(2S)-pyrrolidinylmethoxy]cyclohexanecarboxylate pentahydrate] | no change in weight under typical humidity conditions | very high water-solubility | > 1000 | comparable to that of compound (a) |  |  |
| CO[C@H]1C[C@@H](CO[C@H]2CC[C@H](C(=O)O)CC2)N(C(=O)Cc2cc(Cl)c(NC(=O)c3cn(C)c4ccccc34)cc2Cl)C1 [Compound (a), trans-4-[1-[2,5-dichloro-4-[(1-methyl-1H-3-indolylcarbonyl)amino]phenylacetyl]-(4S)-methoxy-(2S)-pyrrolidinylmethoxy]cyclohexanecarboxylic acid, reference compound] | change in weight at 40 to 60% RH | considerably low water-solubility | 0.653 (≈ 1.06 µM) |  |  |  |
| CO[C@H]1C[C@@H](CO[C@H]2CC[C@H](C(=O)[O-])CC2)N(C(=O)Cc2cc(Cl)c(NC(=O)c3cn(C)c4ccccc34)cc2Cl)C1.[Na+] [Type-I] |  |  |  |  | good storage stability | >1000 |
